# Like-named read-outs stand apart in the source and are kept apart here.
# Tests used:
# Experiment in all cases: greenhouse post-emergence herbicidal test
# [1] = system: IPOHE; type: in vivo, Ipomoea hederacea; set-up: key to herbicidal activity against IPOHE found: rating on a scale from 0 to 100; settings: post emergence; for pest or weed control at 31.25 g/ha: 31.25 g/ha a.i.
# In short: (§1)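 Post-emergence greenhouse test: plants in loamy sand, sprayed at 1–15 cm height with aqueous spray liquor from 10% emulsion concentrates, kept at 10-25 °C or 20-35 °C by species. Damage scored 0–100 (100 = complete destruction), usually 20 days after treatment. Expected additive effect E from Colby: E=X+Y−(X·Y/100).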
# [2] = system: SEBEX; type: in vivo, Sesbania exaltata; settings: application rate a.i.: I.1 31.25 g/ha
# Method: (§2) The culture containers used were plastic pots containing medium loamy sand with approximately 4.6% of humus and 69.9% sand as substrate. The seeds of the test plants were sown separately for each species.
# (§3) For the post-emergence treatment, the test plants were grown to a plant height of from 1 to 15 cm, depending on the plant habit, and only then treated with the active compounds which had been suspended or emulsified in water. To this end, the test plants were either sown directly, and grown in the same containers, or they were first grown separately as seedlings and transplanted into the test containers a few days prior to treatment.
# (§4) Depending on the species, the plants were kept at 10-25° C. and 20-35° C., respectively.
# (§5) The test period extended over 1 to 3 weeks. During this time, the plants were tended and their response to the individual treatments was evaluated 20 days after treatment except mentioned otherwise.
# (§6) Evaluation was carried out using a scale from 0 to 100. 100 means no emergence of the plants, or complete destruction of at least the above-ground parts, and 0 means no damage or normal course of growth.
# (§7) The respective stated components A and B, and, if appropriate, C, were formulated as a 10% by weight strength emulsion concentrate and, with addition of the amount of solvent system, introduced into the spray liquor used for applying the active compound. In the examples, the solvent used was water.
# (§8) In the examples below, using the method of S. R. Colby (1967) “Calculating synergistic and antagonistic responses of herbicide combinations”, Weeds 15, p. 22 ff., the value E, which is expected if the activity of the individual active compounds is only additive, was calculated. E=X+Y−(X·Y/100)
# [3] = system: DIGSA; type: in vivo, Digitaria sanguinalis
# Method: as §2, §3, §4, §5, §6, §7, §8
# [4] = system: STEME; type: in vivo, Stellaria media; set-up: key: scale 0 to 100
# In short: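 Each species was sown separately, grown to a height of 1 to 15 cm and then sprayed with water-dispersed components A, B and where relevant C. Growth conditions were 10-25° C or 20-35° C, and percent damage was recorded at 20 days.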
# [5] = system: KCHSC; type: in vivo, Kochia scoparia; settings: Bassia scoparia, post-emergence, 480 h, post emergence, read-out: herbicidal activity against KCHSC found
# In short: as §1
# [6] = 6 days after treatment, g/ha a.i.: I.1 31.25, B.96 35, mixture 31.25+35
# [7] = I.1 15.62 g/ha, B.89 25 g/ha a.i.
# [8] = I.1 31.25 g/ha, B.89 25 g/ha a.i.
# [9] = a.i. g/ha: I.1 31.25, B.190 62.5, 20 days after treatment
smiles,measurement,setting,value
O=C(O)c1cc(C2CC2)nc2onc(C3CC3)c12 [I.1],pest or weed control at 31.25 g/ha,"[1]; Ipomoea hederacea, post-emergence, 480 h, read-out: herbicidal activity against IPOHE found",75%
same,pest or weed control at 62.5 g/ha,"[1]; Ipomoea hederacea, post-emergence, 480 h, 62.5 g/ha a.i., read-out: herbicidal activity against IPOHE found",90%
same,pest or weed control at 31.25 g/ha,"[1]; Ipomoea hederacea, post-emergence, 480 h, single active, read-out: herbicidal activity against IPOHE found",55%
same,pest or weed control at 125 g/ha,"[1]; Ipomoea hederacea, post-emergence, 480 h, single active, 125 g/ha a.i., read-out: herbicidal activity against IPOHE found",95%
same,herbicidal activity against IPOHE found,[1]; [6],70
same,herbicidal activity against IPOHE found,"[1]; 6 days after treatment, g/ha a.i.: I.1 31.25, B.96 70, mixture 31.25+70",70
same,herbicidal activity against IPOHE found,"[1]; 6 days after treatment, g/ha a.i.: I.1 31.25, B.96 140, mixture 31.25+140",70
same,herbicidal activity against IPOHE found,"[1]; 6 days after treatment, g/ha a.i.: I.1 62.5, B.96 140, mixture 62.5+140",80
same,herbicidal activity against IPOHE found,"[1]; I.1 15.6 g/ha, B.103 7.5 g/ha a.i.",20
same,herbicidal activity against IPOHE found,[1]; [7],25
same,herbicidal activity against IPOHE found,"[1]; I.1 31.25 g/ha, B.103 15 g/ha a.i.",70
same,herbicidal activity against IPOHE found,[1]; [8],25
same,herbicidal activity against IPOHE found,"[1]; I.1 62.5 g/ha, B.57 1 g/ha a.i.",30
same,herbicidal activity against IPOHE found,"[1]; I.1 62.5 g/ha, B.89 12.5 g/ha a.i.",30
same,herbicidal activity against IPOHE found,"[1]; I.1 62.5 g/ha, B.89 25 g/ha a.i.",30
same,herbicidal activity against IPOHE found,"[1]; a.i. g/ha: I.1 15.6, B.190 62.5, 20 days after treatment",50%
same,herbicidal activity against IPOHE found,[1]; [9],65%
same,herbicidal activity against IPOHE found,"[1]; application rate a.i.: I.1 62.5 g/ha, B.40 (imazethapyr) 7.5 g/ha, alone or as mixture (composition 1.40)",95
same,herbicidal activity against IPOHE found,"[1]; g/ha a.i.: I.1 31.25, B.20 2, mixture 31.25+2",25
same,herbicidal activity against IPOHE found,"[1]; g/ha a.i.: I.1 31.25, B.24 1, mixture 31.25+1",25
same,"herbicidal activity against SEBEX, found","[2]; B.139 (pyroxasulfone) 25 g/ha, alone or as mixture (composition 1.139)",80
same,"herbicidal activity against SEBEX, found","[2]; B.87 (carfentrazone-ethyl) 1.75 g/ha, alone or as mixture (composition 1.87)",75
same,herbicidal activity against DIGSA found,"[3]; a.i. g/ha: I.1 31.25, B.76 225, 20 days after treatment",35%
same,herbicidal activity against DIGSA found,"[3]; a.i. g/ha: I.1 62.5, B.76 225, 20 days after treatment",40%
same,herbicidal activity against DIGSA found,"[3]; a.i. g/ha: I.1 62.5, B.80 250, 20 days after treatment",40%
same,herbicidal activity against DIGSA found,"[3]; application rate a.i.: I.1 250 g/ha, B.193 15 g/ha, alone or as mixture (composition 1.193)",35
same,herbicidal activity against STEME found,[4]; 31.25 g/ha a.i.,70
same,herbicidal activity against STEME found,[4]; 62.5 g/ha a.i.,65
same,herbicidal activity against STEME found,[4]; [6],60
same,herbicidal activity against STEME found,"[4]; I.1 15.62 g/ha, B.103 15 g/ha a.i.",60
same,herbicidal activity against STEME found,[4]; [7],0
same,herbicidal activity against STEME found,"[4]; I.1 31.25 g/ha, B.89 12.5 g/ha a.i.",0
same,herbicidal activity against STEME found,[4]; [8],0
same,herbicidal activity against STEME found,[4]; I.1 alone 31.25 g/ha a.i.,30
same,herbicidal activity against STEME found,"[4]; a.i. g/ha: I.1 2.3, B.67 62.5, 20 days after treatment",0%
same,herbicidal activity against STEME found,"[4]; a.i. g/ha: I.1 6.9, B.67 62.5, 20 days after treatment",0%
same,herbicidal activity against STEME found,"[4]; a.i. g/ha: I.1 15.6, B.67 125, 20 days after treatment",0%
same,herbicidal activity against STEME found,"[4]; a.i. g/ha: I.1 20.8, B.67 62.5, 20 days after treatment",50%
same,herbicidal activity against STEME found,[4]; [9],70%
same,herbicidal activity against STEME found,"[4]; a.i. g/ha: I.1 31.25, B.67 125, 20 days after treatment",70%
same,herbicidal activity against STEME found,"[4]; a.i. g/ha: I.1 31.25, B.67 125, 20 days after treatment, sub-table r36-r43",70%
same,herbicidal activity against STEME found,"[4]; a.i. g/ha: I.1 62.5, B.191 225, 20 days after treatment",85%
same,pest or weed control at 31.25 g/ha,[5]; I.1 alone 31.25 g/ha a.i.,70%
same,pest or weed control at 62.5 g/ha,[5]; I.1 alone 62.5 g/ha a.i.,85%
same,pest or weed control at 31.25 g/ha,[5]; 31.25 g/ha a.i.,75%
same,pest or weed control at 125 g/ha,[5]; I.1 125 g/ha a.i.,95%
same,pest or weed control at 15.625 g/ha,"[5]; single active, 15.625 g/ha a.i.",0%
same,pest or weed control at 31.25 g/ha,"[5]; single active, 31.25 g/ha a.i.",30%
